Experimental data from patent publication US20250145632A1, “Pyrimidine Heterocyclic Compound, Preparation Method Thereof and use Thereof in Medicine” (INSILICO MEDICINE IP LIMITED, priority 2021, published 2025).

Experiments:
[1] = test system: HCC70 human breast ductal cancer cells; test: HCC70 tumor cell proliferation inhibition (CellTiter-Glo); assay type: cell-based; settings: 3 d culture
Procedure: HCC70 was purchased from ATCC; article No.: CRL-2315; RPMI1640 was purchased from Gibco; article No.: 11875-093; Pancreatin (including EDTA) was purchased from Gibco; article No.: 25200-072; FBS was purchased from Gibco; article No.: 10099-141C; CellTiter-Glo was purchased from Promega; article No.: G7573; DMSO was purchased from VWR AMRESCO; article No.: 0231-500ML; Staurosporine was purchased from Selleck; article No.: S1421; a cell counter was purchased from CHEMOMETEC; model: NC-200; and a microplate reader was purchased from PerkinElmer; Model: Envison.
(§1) HCC70 was human breast ductal cancer cells cultured in an RPMI-1640 culture medium containing 10% FBS. Cells in logarithmic phase were taken, and the cells were subjected to digesting, collecting and counting with pancreatin-EDTA, 2000 HCC70 cells/well were inoculated in a 384-well cell plate, and were cultured in 5% CO2 overnight. A 1000× compound stock solution with 3.16 times of gradient concentration was prepared with DMSO, and was diluted 100 times to 10× compound stock solution with a culture medium, and 10× compound stock solution was added into each cell culture well on the next day after cell inoculation, wherein the final concentration was 1×, and the DMSO content was 0.1%. The cell group was treated with DMSO as an experimental control (control), and the cell group was treated with 5 μM of Staurosporine as a blank control (blank).

[2] = test system: OVCAR-3 human ovarian adenocarcinoma cells; test: OVCAR-3 tumor cell proliferation inhibition (CellTiter-Glo); assay type: cell-based; settings: 3 d culture
Procedure: OVCAR-3 was purchased from ATCC; article No.: HTB-161; RPMI1640 was purchased from Gibco; article No.: 11875-093; Pancreatin (including EDTA) was purchased from Gibco; article No.: 25200-072; FBS was purchased from Gibco; Article No.: 10091-148; CellTiter-Glo was purchased from Promega; article No.: G7573; Bovine insulin was purchased from absin; article No.: abs9169; DMSO was purchased from VWR AMRESCO; article No.: 0231-500ML; Staurosporine was purchased from Selleck; article No.: S1421; a cell counter was purchased from CHEMOMETEC; model: NC-200; and a microplate reader was purchased from PerkinElmer; Model: Envison.
as §1, with “OVCAR-3” for “HCC70”, “ovarian adenocarcinoma” for “breast ductal cancer”, “20% FBS and 0.01 mg/mL of Bovine insulin.” for “10% FBS.”

IC50 [2]	Molecule	IC50 [1]
–	(4^3S)-1^7-(dimethylphosphoryl)-2^5-(trifluoromethyl)-1^1H-3,11-diaza-1(3,6)-indola-2(4,2)-pyrimidina-4(3,1)-piperidinacyclododecaphan-12-one [Compound Z61]	390 nM
–	CC1CCCNC(=O)c2ccc3c(c[nH]c3c2P(C)(C)=O)-c2nc(ncc2C(F)(F)F)N[C@H]2CC[C@@H](C2)N1 (some centres unmarked) [Compound Z58, (4^1S,4^3S)-1^7-(dimethylphosphoryl)-6-methyl-2^5-(trifluoromethyl)-1^1H-3,5,10-triaza-1(3,6)-indola-2(4,2)-pyrimidina-4(1,3)-cyclopentanacycloundecaphan-11-one]	233 nM
15.9 nM	CN1CCCCNC2CCC(C2)Nc2ncc(C(F)(F)F)c(n2)-c2c[nH]c3c(P(C)(C)=O)c(ccc23)C1=O (centres unmarked) [Compound Z62, (41 S,4^3S)-1^7-(dimethylphosphoryl)-10-methyl-2^5-(trifluoromethyl)-1^1H-3,5,10-triaza-1(3,6)-indola-2(4,2)-pyrimidina-4(1,3)-cyclopentanacycloundecaphan-11-one]	24.6 nM
–	CP(C)(=O)c1c2ccc3c(c[nH]c13)-c1nc(ncc1C(F)(F)F)N[C@H]1CC[C@@H](C1)NCCC(F)(F)CNC2=O [Compound Z19, (4^1S,43S)-17-(dimethylphosphoryl)-8,8-difluoro-2^5-(trifluoromethyl)-1^1H-3,5,10-triaza-1(3,6)-indola-2(4,2)-pyrimidina-4(1,3)-cyclopentanacycloundecaphan-11-one]	15.4 nM
> 10000 nM	CN1CCC(F)CN(C)C2CC[C@@H](C2)Nc2ncc(C(F)(F)F)c(n2)-c2c[nH]c3c(P(C)(C)=O)c(ccc23)C1=O (stereo partly drawn) [Compound Z89, (41S)-1^7-(dimethylphosphoryl)-7-fluoro-5,10-dimethyl-2^5-(trifluoromethyl)-1^1H-3,5,10-triaza-1(3,6)-indola-2(4,2)-pyrimidina-4(1,3)-cyclopentanacycloundecaphan-11-one]	> 10000 nM
98.6 nM	CN1CCOCCN[C@H]2CC[C@@H](C2)Nc2ncc(C(F)(F)F)c(n2)-c2c[nH]c3c(P(C)(C)=O)c(ccc23)C1=O [Compound Z64, (4^1S,4^3S)-1^7-(dimethylphosphoryl)-11-methyl-2^5-(trifluoromethyl)-1^1H-8-oxa-3,5,11-triaza-1(3,6)-indola-2(4,2)-pyrimidina-4(1,3)-cyclopentanacyclododecaphan-12-one]	42.8 nM
62.6 nM	CN1C[C@H](F)CCN(C)[C@H]2CC[C@@H](C2)Nc2ncc(C(F)(F)F)c(n2)-c2c[nH]c3c(P(C)(C)=O)c(ccc23)C1=O [Compound Z78, (4^1S,4^3S,8R)-1^7-(dimethylphosphoryl)-8-fluoro-5,10-dimethyl-2^5-(trifluoromethyl)-1^1H-3,5,10-triaza-1(3,6)-indola-2(4,2)-pyrimidina-4(1,3)-cyclopentanacycloundecaphan-11-one]	44 nM
–	CP(C)(=O)c1c2ccc3c(c[nH]c13)-c1nc(ncc1C(F)(F)F)N[C@H]1CC[C@@H](C1)NCCCCCNC2=O [Compound Z6, (41 S,4^3S)-1^7-(dimethylphosphoryl)-2^5-(trifluoromethyl)-1^1H-3,5,11-triaza-1(3,6)-indola-2(4,2)-pyrimidina-4(1,3)-cyclopentanacyclododecaphan-12-one]	222 nM
–	CN1CCOCCNC2CCC(C2)Nc2ncc(C(F)(F)F)c(n2)-c2c[nH]c3c(S(C)(=O)=O)c(ccc23)C1=O (centres unmarked) [Compound Z72, (4^1S,4^3S)-11-methyl-1^7-(methylsulfonyl)-2^5-(trifluoromethyl)-1^1H-8-oxa-3,5,11-triaza-1(3,6)-indola-2(4,2)-pyrimidina-4(1,3)-cyclopentanacyclododecaphan-12-one]	869 nM
31.5 nM	CN1C[C@H](F)CCN[C@H]2CC[C@@H](C2)Nc2ncc(C(F)(F)F)c(n2)-c2c[nH]c3c(P(C)(C)=O)c(ccc23)C1=O (single isomer, unassigned) [Compound Z76]	21.9 nM
21.2 nM	CN1CC(F)(F)CCNC2CC[C@@H](C2)Nc2ncc(C(F)(F)F)c(n2)-c2c[nH]c3c(P(C)(C)=O)c(ccc23)C1=O [Compound Z66, (41 S,4^3S)-1^7-(dimethylphosphoryl)-8,8-difluoro-10-methyl-2^5-(trifluoromethyl)-1^1H-3,5,10-triaza-1(3,6)-indola-2(4,2)-pyrimidina-4(1,3)-cyclopentanacycloundecaphan-11-one]	10.5 nM
–	CP(C)(=O)c1c2ccc3c(c[nH]c13)-c1nc(ncc1C(F)(F)F)N[C@H]1CC[C@@H](C1)NCCCCCCNC2=O [Compound Z59, (4^1S,4^3S)-1^7-(dimethylphosphoryl)-2^5-(trifluoromethyl)-1^1H-3,5,12-triaza-1(3,6)-indola-2(4,2)-pyrimidina-4(1,3)-cyclopentanacyclotridecaphan-13-one]	422 nM
–	CN1CCC(F)CN(C)C2CC[C@@H](C2)Nc2ncc(C(F)(F)F)c(n2)-c2c[nH]c3c(P(C)(C)=O)c(ccc23)C1=O (some centres unmarked) [Compound Z88, (4^1S)-1^7-(dimethylphosphoryl)-7-fluoro-5,10-dimethyl-2^5-(trifluoromethyl)-1^1H-3,5,10-triaza-1(3,6)-indola-2(4,2)-pyrimidina-4(1,3)-cyclopentanacycloundecaphan-11-one]	241 nM
–	O=C1NCCCCN[C@H]2CCC(C2)Nc2ncc(C(F)(F)F)c(n2)-c2c[nH]c3c(Cl)c1ccc23 [Compound Z11, (4^1S,43S)-1^7-chloro-2^5-(trifluoromethyl)-1^1H-3,5,10-triaza-1(3,6)-indola-2(4,2)-pyrimidina-4(1,3)-cyclopentanacycloundecaphan-11-one]	186 nM
–	CN1CCCCN(C)[C@H]2CC[C@@H](C2)Nc2ncc(C(F)(F)F)c(n2)-c2c[nH]c3c(P(C)(C)=O)c(ccc23)C1=O [Compound Z27, (4^1S,4^3S)-1^7-(dimethylphosphoryl)-5,10-dimethyl-2^5-(trifluoromethyl)-1^1H-3,5,10-triaza-1(3,6)-indola-2(4,2)-pyrimidina-4(1,3)-cyclopentanacycloundecaphan-11-one]	9.7 nM
–	CN1CCC(F)CN(C)C2CC[C@@H](C2)Nc2ncc(C(F)(F)F)c(n2)-c2c[nH]c3c(P(C)(C)=O)c(ccc23)C1=O (some centres unmarked) [Compound Z87, (4^1S)-1^7-(dimethylphosphoryl)-7-fluoro-5,10-dimethyl-2^5-(trifluoromethyl)-1^1H-3,5,10-triaza-1(3,6)-indola-2(4,2)-pyrimidina-4(1,3)-cyclopentanacycloundecaphan-11-one]	243 nM
–	CP(C)(=O)c1c2ccc3c(c[nH]c13)-c1nc(ncc1C(F)(F)F)N[C@H]1CCC[C@@H](C1)NCCCCNC2=O [Compound Z9, (4^1S,4^3S)-1^7-(dimethylphosphoryl)-2^5-(trifluoromethyl)-1^1H-3,5,10-triaza-1(3,6)-indola-2(4,2)-pyrimidina-4(1,3)-cyclohexanacycloundecaphan-11-one]	99.8 nM
–	CN1CCOCCNC(=O)c2ccc3c(c[nH]c3c2P(C)(C)=O)-c2nc(ncc2C(F)(F)F)NC2CCC1C2 [Compound Z60, (4^1S,43S)-17-(dimethylphosphoryl)-5-methyl-2^5-(trifluoromethyl)-1^1H-8-oxa-3,5,11-triaza-1(3,6)-indola-2(4,2)-pyrimidina-4(1,3)-cyclopentanacyclododecaphan-12-one]	89 nM
–	CP(C)(=O)c1c2ccc3c(c[nH]c13)-c1nc(ncc1C(F)(F)F)N[C@H]1CC[C@@H](C1)NCCCNC2=O [Compound Z10, (4^1S, 4^3S)-1^7-(dimethylphosphoryl)-2^5-(trifluoromethyl)-1^1H-3,5,9-triaza-1(3,6)-indola-2(4,2)-pyrimidina-4(1,3)-cyclopentanacyclodecaphan-10-one]	162 nM
–	CN1CCCCNC(=O)c2ccc3c(c[nH]c3c2P(C)(C)=O)-c2nc(ncc2C(F)(F)F)N[C@H]2CC[C@H]1C2 [Compound Z16, (4^1S,43S)-1^7-(dimethylphosphoryl)-5-methyl-2^5-(trifluoromethyl)-1^1H-3,5,10-triaza-1(3,6)-indola-2(4,2)-pyrimidina-4(1,3)-cyclopentanacycloundecaphan-11-one]	23 nM
